By IC50 is commonly meant the concentration needed to halve the response being measured. A high value points to a need for much substance. A word on the EC50: it is the concentration at which the effect is half-maximal.

Square brackets hold non-standard residues; d marks the D form. Ends that are not written are not given here. Peptide text beside a SMILES is read from it. * marks the point of attachment. dPhe(F5) = N[C@H](Cc1c(F)c(F)c(F)c(F)c1F)C(=O)O; pGlu = O=C1CC[C@@H](C(=O)O)N1; Nle = CCCC[C@H](N)C(=O)O; βAla = NCCC(=O)O; NHPr = CCCN*

The values that follow come from publication PMC2766550 (Peptides, 2009).

One assay deals with T1, hBRS-3 receptor (Homo sapiens, UniProt P32247).
T1 sequence (P32247 1-399): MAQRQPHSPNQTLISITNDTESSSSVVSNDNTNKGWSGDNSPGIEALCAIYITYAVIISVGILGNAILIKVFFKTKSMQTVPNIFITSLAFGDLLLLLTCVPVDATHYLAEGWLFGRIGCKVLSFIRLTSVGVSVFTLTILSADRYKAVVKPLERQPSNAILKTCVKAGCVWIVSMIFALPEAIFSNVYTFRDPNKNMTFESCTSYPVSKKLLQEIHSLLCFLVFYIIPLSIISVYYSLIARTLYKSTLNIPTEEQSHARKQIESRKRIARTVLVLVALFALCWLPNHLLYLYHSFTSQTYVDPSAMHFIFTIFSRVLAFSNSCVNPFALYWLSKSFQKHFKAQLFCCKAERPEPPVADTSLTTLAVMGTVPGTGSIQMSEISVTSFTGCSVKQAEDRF
The assay can be described thus: Whole cell radioligand binding, hBRS-3 transfected Balb 3T3 cells.

Assay [1] addresses T2, hNMB-receptor (Homo sapiens, UniProt P28336). The assay can be described thus: Whole cell radioligand binding, hNMB-receptor transfected Balb 3T3 cells. The note with it: IC50 hNMB-R Balb-3T3, hNMB-receptor transfected Balb 3T3 cells; 125I-[D-Tyr0]NMB, 1 h, 22°C; mean ± S.E.
Assay [2] concerns the target T3, hGRP-receptor (Homo sapiens, UniProt P30550). The assay can be described thus: Whole cell radioligand binding, HuTu-80 cells.
Assay [3] addresses T2, hNMB-receptor. The assay can be described thus: Whole cell radioligand binding, hNMB-receptor transfected NCI-H1299 cells.
The target in assay [4] is T3, hGRP-receptor. The assay can be described thus: [3H]inositol phosphate generation, hGRP-receptor transfected Balb 3T3 cells. In kind it is cell-based.
The target in assay [5] is T2, hNMB-receptor. The assay can be described thus: cell-based. Particulars: for [3H]IP NCI-H1299 (hNMB-R) EC50: stimulation of [3H]IP generation.
Assay [6] deals with T3, hGRP-receptor. Kind of assay: [3H]inositol phosphate generation, HuTu-80 cells. The class given is cell-based.

T3 sequence (P30550 whole entry): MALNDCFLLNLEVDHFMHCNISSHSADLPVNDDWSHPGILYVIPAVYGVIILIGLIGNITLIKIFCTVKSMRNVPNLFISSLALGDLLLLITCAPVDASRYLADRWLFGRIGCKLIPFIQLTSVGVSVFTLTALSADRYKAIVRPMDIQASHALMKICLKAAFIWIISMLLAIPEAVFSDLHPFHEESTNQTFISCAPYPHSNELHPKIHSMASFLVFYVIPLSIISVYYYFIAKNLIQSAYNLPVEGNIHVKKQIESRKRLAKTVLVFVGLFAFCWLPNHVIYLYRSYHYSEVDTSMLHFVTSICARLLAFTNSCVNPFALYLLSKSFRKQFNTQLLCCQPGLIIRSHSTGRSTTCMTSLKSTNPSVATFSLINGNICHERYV
T2 sequence (P28336 whole entry): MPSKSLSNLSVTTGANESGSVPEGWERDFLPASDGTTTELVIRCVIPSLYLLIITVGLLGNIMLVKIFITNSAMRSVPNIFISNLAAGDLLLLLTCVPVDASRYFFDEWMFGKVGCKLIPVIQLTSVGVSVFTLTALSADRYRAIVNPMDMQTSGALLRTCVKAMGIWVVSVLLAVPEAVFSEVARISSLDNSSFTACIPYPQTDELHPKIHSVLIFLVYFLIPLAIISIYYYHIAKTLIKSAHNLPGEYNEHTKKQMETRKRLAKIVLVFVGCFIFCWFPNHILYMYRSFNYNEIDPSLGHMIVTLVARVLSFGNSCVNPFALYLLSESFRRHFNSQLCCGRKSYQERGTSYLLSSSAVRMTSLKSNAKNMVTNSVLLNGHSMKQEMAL

Turning to `COC(=O)[C@H]1CCCN1C(=O)[C@H](Cc1c[nH]cn1)NC(=O)[C@@H](C)NC(=O)[C@@H](NC(=O)[C@H](C)NC(=O)[C@H](Cc1c[nH]c2ccccc12)NC(=O)[C@H](Cc1c[nH]cn1)NC(=O)[C@H](N)Cc1c(F)c(F)c(F)c(F)c1F)C(C)C` [Peptide 19, [D-F-5-Phe^6, His^7, D-Ala^11, D-Pro^13]Bn(6-13)ME] (H-[dPhe(F5)]HWAV[dA]H[dP]-OMe), the IC50 on hBRS-3 receptor and at hNMB-receptor [1] was above 10000 nM in each case.
Regarding `CSCC[C@H](NC(=O)[C@H](CC(C)C)NC(=O)[C@H](Cc1c[nH]cn1)NC(=O)CNC(=O)[C@@H](NC(=O)[C@H](C)NC(=O)[C@H](Cc1c[nH]c2ccccc12)NC(=O)[C@H](Cc1c[nH]cn1)NC(=O)[C@H](CC(N)=O)NC(=O)CNC(=O)[C@H](CCCNC(=N)N)NC(=O)[C@@H]1CCCN1C(=O)[C@H](Cc1ccc(O)cc1)NC(=O)[C@H](CCSC)NC(=O)[C@H](CCCCN)NC(=O)[C@@H](NC(=O)[C@H](CC(C)C)NC(=O)[C@@H](NC(=O)[C@@H](NC(=O)CNC(=O)CNC(=O)CNC(=O)[C@H](C)NC(=O)[C@@H]1CCCN1C(=O)[C@H](CC(C)C)NC(=O)[C@@H]1CCCN1C(=O)[C@@H](N)C(C)C)[C@@H](C)O)C(C)C)[C@@H](C)O)C(C)C)C(N)=O` [GRP, gastrin-releasing peptide, reference compound], at hBRS-3 receptor, the “fold lower affinity for hBRS3 than for the ligand's own receptor” value was > 10,000 fold.
As to `CC(C)C[C@H](NC(=O)[C@H](CC(C)C)NC(=O)[C@@H](Cc1ccccc1)NC(=O)CNC(=O)[C@@H](NC(=O)[C@H](C)NC(=O)[C@H](Cc1c[nH]c2ccccc12)NC(=O)[C@H](CCC(N)=O)NC(=O)[C@H](CC(N)=O)NC(=O)CNC(=O)[C@H](CC(C)C)NC(=O)[C@H](CCCNC(=N)N)NC(=O)[C@H](CCC(N)=O)NC(=O)[C@@H]1CCC(=O)N1)C(C)C)C(N)=O` [Peptide 1, [D-Phe^12, Leu^14]Bn] ([pGlu]QRLGNQWAVG[dF]LL-NH2), the IC50 on hBRS-3 receptor and on hNMB-receptor [1] was above 10000 nM each time.
As for `CSCC[C@H](NC(=O)[C@H](CC(C)C)NC(=O)[C@@H](Cc1ccccc1)NC(=O)CNC(=O)[C@@H](NC(=O)[C@H](C)NC(=O)[C@H](Cc1c[nH]c2ccccc12)NC(=O)[C@H](CCC(N)=O)NC(=O)[C@H](CC(N)=O)NC(=O)CNC(=O)[C@H](Cc1ccc(O)cc1)NC(=O)[C@H](CCCNC(=N)N)NC(=O)[C@H](CCC(N)=O)NC(=O)[C@@H]1CCC(=O)N1)C(C)C)C(N)=O` [Peptide 2, [Tyr^4, D-Phe^12]Bn], the half-inhibitory concentration (IC50) on hGRP-receptor [2] is 912 ± 76 nM; at hBRS-3 receptor it was above 10000 nM; at hNMB-receptor [3], 1860 ± 60 nM; against hGRP-receptor [4], above 10000 nM; on hNMB-receptor [1], 3090 ± 320 nM; against hGRP-receptor [6], 8130 ± 226 nM. Further, the response on hNMB-receptor [5] was half-maximal at 103 ± 5 nM (EC50).
Take `CC(C)C[C@H](NC(=O)[C@H](CC(C)C)NC(=O)[C@@H](Cc1c[nH]c2ccccc12)NC(=O)[C@H](Cc1ccccc1)NC(=O)[C@@H](Cc1c[nH]c2ccccc12)NC(=O)[C@H](CCC(N)=O)NC(=O)[C@H](CCC(N)=O)NC(=O)[C@@H]1CCCN1C(=O)[C@H](CCCCN)NC(=O)[C@@H]1CCCN1C(=O)[C@H](N)CCCNC(=N)N)C(N)=O` [Peptide 3, [D-Arg^1, D-Trp^7,9, Leu^11]SP] (H-[dR]PKPQQ[dW]F[dW]LL-NH2): the “[3H]IP NCI-H1299 (hNMB-R) EC50” value on hNMB-receptor [5] is given as “No act”.
With `CCCNC(=O)[C@H](CC(C)C)NC(=O)[C@H](Cc1c[nH]cn1)NC(=O)CNC(=O)[C@@H](NC(=O)[C@H](C)NC(=O)[C@H](Cc1c[nH]c2ccccc12)NC(=O)[C@H](CCC(N)=O)NC(=O)[C@H](N)Cc1ccc(O)cc1)C(C)C` [Peptide 12, [D-Tyr^6]Bn-(6-13)Propylamide (PA)], the concentration for half-maximal inhibition (IC50) was 1.41 ± 0.06 nM on hGRP-receptor [2]; 1900 ± 300 nM at hBRS-3 receptor; above 10000 nM on hNMB-receptor [3]; 275 ± 13 nM on hGRP-receptor [4]; above 10000 nM on hNMB-receptor [1]; 40.7 ± 1.4 nM against hGRP-receptor [6].
In the case of `CC(C)C[C@H](NC(=O)[C@H](Cc1cnc[nH]1)NC(=O)CNC(=O)[C@@H](NC(=O)[C@H](C)NC(=O)[C@H](Cc1c[nH]c2ccccc12)NC(=O)[C@H](CCC(N)=O)NC(=O)[C@H](N)Cc1ccccc1)C(C)C)C(N)=O` [Peptide 8, [D-Phe^6]Bn(6-13)NH2], the IC50 is 4.93 ± 0.39 nM on hGRP-receptor [2]; above 10000 nM at hBRS-3 receptor; above 10000 nM on hNMB-receptor [3]; 416 ± 8 nM on hGRP-receptor [4]; above 10000 nM against hNMB-receptor [5]; above 10000 nM on hNMB-receptor [1]. This compound yielded a half-inhibitory concentration (IC50) against hGRP-receptor [6] of 398 ± 11 nM.
With `CCCCNC(=O)[C@H](CC(C)C)NC(=O)[C@H](Cc1c[nH]cn1)NC(=O)CNC(=O)[C@@H](NC(=O)[C@H](C)NC(=O)[C@H](Cc1c[nH]c2ccccc12)NC(=O)[C@H](CCC(N)=O)NC(=O)[C@H](N)Cc1ccccc1)C(C)C` [Peptide 14, [D-Phe^6]Bn(6-13)Butylamide (BA)], the IC50 at hGRP-receptor [2] turned out to be 1.02 ± 0.09 nM; at hBRS-3 receptor, 692 ± 27 nM; on hNMB-receptor [3] it was 1780 ± 30 nM; at hGRP-receptor [4] it was 21.3 ± 1.6 nM; at hNMB-receptor [1] it was 3110 ± 160 nM; on hGRP-receptor [6], 15.5 ± 2 nM.
In the case of `CCCCCCCNC(=O)[C@H](CC(C)C)NC(=O)[C@H](Cc1c[nH]cn1)NC(=O)CNC(=O)[C@@H](NC(=O)[C@H](C)NC(=O)[C@H](Cc1c[nH]c2ccccc12)NC(=O)[C@H](CCC(N)=O)NC(=O)[C@H](N)Cc1ccccc1)C(C)C` [Peptide 16, [D-Phe^6]Bn(6-13)Heptylamide], the IC50 at hBRS-3 receptor was above 10000 nM; on hNMB-receptor [1], 6100 ± 630 nM.
With `CCNC(=O)[C@H](CC(C)C)NC(=O)[C@H](Cc1c[nH]cn1)NC(=O)CNC(=O)[C@@H](NC(=O)[C@H](C)NC(=O)[C@H](Cc1c[nH]c2ccccc12)NC(=O)[C@H](CCC(N)=O)NC(=O)[C@H](N)Cc1ccccc1)C(C)C` [Peptide 10, [D-Phe^6]Bn(6-13)Ethylamide], the IC50 on hGRP-receptor [2] is 2.22 ± 0.13 nM; at hBRS-3 receptor, above 10000 nM; at hNMB-receptor [3], above 10000 nM; at hGRP-receptor [4] it was 52.5 ± 4.3 nM; on hNMB-receptor [1], above 10000 nM; against hGRP-receptor [6], 43.6 ± 3.6 nM.
On to `CCCC[C@H](NC(=O)[C@H](Cc1ccccc1)NC(=O)[C@H](Cc1cnc[nH]1)NC(=O)CCNC(=O)[C@@H](NC(=O)[C@H](C)NC(=O)[C@H](Cc1c[nH]c2ccccc12)NC(=O)[C@H](CCC(N)=O)NC(=O)[C@H](N)Cc1ccc(O)cc1)C(C)C)C(N)=O` [Peptide 35, [D-Tyr^6, β-Ala^11,Phe^13, Nle^14]Bn-(6-14), reference compound] (H-[dY]QWAV[βAla]HF[Nle]-NH2), for which the IC50 on hBRS-3 receptor stood at 0.55 ± 0.03 nM; on hNMB-receptor [1], 0.31 ± 0.01 nM.
With `CCCCCCNC(=O)[C@H](CC(C)C)NC(=O)[C@H](Cc1cnc[nH]1)NC(=O)CNC(=O)[C@@H](NC(=O)[C@H](C)NC(=O)[C@H](Cc1c[nH]c2ccccc12)NC(=O)[C@H](CCC(N)=O)NC(=O)[C@H](N)Cc1ccccc1)C(C)C` [Peptide 15, [D-Phe^6]Bn-(6-13)Hexylamide], the IC50 is 2.19 ± 0.04 nM on hGRP-receptor [2]; 3250 ± 60 nM on hBRS-3 receptor; above 10000 nM on hNMB-receptor [3]; 380 ± 31 nM against hGRP-receptor [4]; 8140 ± 400 nM on hNMB-receptor [1]; 204 ± 14 nM against hGRP-receptor [6].
As for `CCCNC(=O)[C@H](Cc1ccccc1)NC(=O)[C@H](Cc1c[nH]cn1)NC(=O)CNC(=O)[C@@H](NC(=O)[C@H](C)NC(=O)[C@H](Cc1c[nH]c2ccccc12)NC(=O)[C@H](CCC(N)=O)NC(=O)[C@H](N)Cc1ccccc1)[C@@H](C)O` [Peptide 13, [D-Phe^6,Thr^10, Phe^13]Bn(6-13)PA] (H-[dF]QWATGHF-NHPr), the IC50 on hBRS-3 receptor was above 10000 nM; on hNMB-receptor [1], 1320 ± 30 nM.
Regarding `CSCC[C@H](NC(=O)[C@@H](Cc1c[nH]c2ccccc12)NC(=O)[C@@H](Cc1c[nH]c2ccccc12)NC(=O)[C@H](Cc1ccccc1)NC(=O)[C@@H](Cc1c[nH]c2ccccc12)NC(=O)[C@H](CCC(N)=O)NC(=O)[C@H](CCC(N)=O)NC(=O)[C@H]1CCCN1)C(N)=O` [Peptide 4, [D-Pro^4, D-Trp^7,9,10]SP-(4-11)] (H-[dP]QQ[dW]F[dW][dW]M-NH2), the IC50 at hGRP-receptor [2] was above 10000 nM; on hBRS-3 receptor, 2300 ± 400 nM; at hNMB-receptor [3], above 10000 nM; against hGRP-receptor [4], above 3000 nM; on hNMB-receptor [5], 7080 ± 344 nM; at hNMB-receptor [1] it was above 10000 nM. The same compound came in with an IC50 at hGRP-receptor [6] above 3000 nM. Further, at hNMB-receptor [5], the “[3H]IP NCI-H1299 (hNMB-R) EC50” value is reported as “No act”.
As to NQWAVGHL-NH2 [Peptide 9, Bn(6-13)NH2], the IC50 on hBRS-3 receptor and at hNMB-receptor [1] was above 10000 nM throughout.
On to `CC(C)C[C@H](NC(=O)[C@H](CC(C)C)NC(=O)[C@@H](Cc1c[nH]c2ccccc12)NC(=O)[C@H](Cc1ccccc1)NC(=O)[C@@H](Cc1c[nH]c2ccccc12)NC(=O)[C@H](CCC(N)=O)NC(=O)[C@H](CCC(N)=O)NC(=O)[C@@H]1CCCN1C(=O)[C@H](CCCCN)NC(=O)[C@@H]1CCCN1C(=O)[C@H](N)CCCN=C(N)N)C(N)=O` [Peptide 3, [D-Arg^1, D-Trp^7,9, Leu^11]SP] (H-[dR]PKPQQ[dW]F[dW]LL-NH2), for which the IC50 is 1780 ± 50 nM on hGRP-receptor [2]; above 10000 nM at hBRS-3 receptor; 1590 ± 30 nM on hNMB-receptor [3]; 1580 ± 81 nM against hGRP-receptor [4]; 2340 ± 80 nM against hNMB-receptor [5]; 4480 ± 860 nM on hNMB-receptor [1]. This compound also had a half-maximal inhibitory concentration (IC50) against hGRP-receptor [6] of 8310 ± 154 nM.
